# In BindingDB's records for doi:10.7270/Q2H130G1 (Burnham Center For Chemical Genomics, 2010):
# Biological target: T1, Alkaline phosphatase, tissue-nonspecific isozyme (Homo sapiens, UniProt P05186)
# T1 sequence (P05186 whole entry): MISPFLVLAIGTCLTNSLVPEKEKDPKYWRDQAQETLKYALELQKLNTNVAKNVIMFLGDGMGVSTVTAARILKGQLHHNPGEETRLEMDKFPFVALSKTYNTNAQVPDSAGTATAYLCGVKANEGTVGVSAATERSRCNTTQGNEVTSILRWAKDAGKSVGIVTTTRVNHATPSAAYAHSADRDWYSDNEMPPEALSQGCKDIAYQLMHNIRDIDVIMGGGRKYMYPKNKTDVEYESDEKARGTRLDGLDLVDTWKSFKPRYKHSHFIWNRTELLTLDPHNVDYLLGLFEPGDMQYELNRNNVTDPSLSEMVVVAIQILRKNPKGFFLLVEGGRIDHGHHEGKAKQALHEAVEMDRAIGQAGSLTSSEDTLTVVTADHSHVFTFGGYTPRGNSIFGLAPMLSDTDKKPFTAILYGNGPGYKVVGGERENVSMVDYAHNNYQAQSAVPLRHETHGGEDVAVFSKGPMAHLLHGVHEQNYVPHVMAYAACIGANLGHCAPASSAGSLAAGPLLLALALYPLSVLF
# Test: TNAP enzyme inhibition by screening hits, dose response, selectivity assay for mouse IAP inhibitor project, biochemical, human TNAP, uHTS hits (AID 488906)
row,SMILES,IC50
1,O=C1C=CC(/C=C/c2nc(O)c([N+](=O)[O-])c(=O)[nH]2)C=C1O (stereo not given) [SMR000524347],1.12 µM
2,"Nc1nnc(CC(=O)N/N=C/C2C=C([N+](=O)[O-])C=C(Br)C2=O)s1 (stereo not given) [2-(5-azanyl-1,3,4-thiadiazol-2-yl)-N'-[(E)-(5-bromanyl-3-nitro-6-oxidanylidene-cyclohexa-2,4-dien-1-ylidene)methyl]ethanehydrazide]",20.6 µM
3,NS(=O)(=O)c1cc(C(=O)NNC2=c3ccccc3=NC2=O)ccc1Cl [2-chloro-5-[[(2-oxoindol-3-yl)amino]carbamoyl]benzenesulfonamide],> 100 µM
4,"Oc1ccc(CN=Nc2cc(N3CCCC3)nc(N3CCCC3)n2)cc1O [(4Z)-4-[[2-(2,6-dipyrrolidin-1-ylpyrimidin-4-yl)hydrazinyl]methylidene]-2-hydroxycyclohexa-2,5-dien-1-one]",> 100 µM
5,Cc1ccc(Cl)c2c1NC(=O)/C2=C1/NC(=S)NC1=O,0.211 µM
6,C#CCOCCOCCOCCNc1nc(N2CCN(C(=O)CCCCCCCCCCNC(=O)Cn3cc(CCCCCN)nn3)CC2)nc(N2CCN(C(=O)CCCCCCCCCCNC(=O)Cn3cc(C[C@@H](C)O)nn3)CC2)n1 [KG-TG],> 100 µM
7,"CC1NON=C1C(=O)NN=CC1=CC(=O)C(=O)C=C1 (stereo not given) [4-Methyl-furazan-3-carboxylic acid (3,4-dihydroxy-benzylidene)-hydrazide]",16.8 µM
8,O=C(Nn1c(O)csc1=S)C(=O)Nn1c(O)csc1=S [SMR000349781],> 100 µM
9,COc1cc(C=CC(=O)CC(=O)C=Cc2ccc(O)cc2)ccc1O [demethoxycurcumin],> 100 µM
10,"COc1cc(C=Nn2c(O)csc2=S)ccc1O [3-[[(E)-(3-methoxy-4-oxidanylidene-cyclohexa-2,5-dien-1-ylidene)methyl]amino]-2-sulfanylidene-1,3-thiazolidin-4-one]",> 100 µM
11,"Cc1ccc(/C=C2\SC(=S)N(/N=C/C3C=C([N+](=O)[O-])C=CC3=O)C2=O)o1 (stereo not given) [(5Z)-5-[(5-methylfuran-2-yl)methylidene]-3-[[(E)-(3-nitro-6-oxocyclohexa-2,4-dien-1-ylidene)methyl]amino]-2-sulfanylidene-1,3-thiazolidin-4-one]",> 100 µM
12,O=C1C=CC(C=NNC(=S)Nc2ccccc2[N+](=O)[O-])C=C1O (stereo not given) [MLS000417596],1.53 µM
13,C#CCOCCOCCOCCNc1nc(N2CCN(C(=O)CCCCCCCCCCNC(=O)[C@@H](CCSC)n3cc(CCO)nn3)CC2)nc(N2CCN(C(=O)CCCCCCCCCCNC(=O)[C@H]([C@@H](C)CC)n3cc(CCCCCN)nn3)CC2)n1 [MLS002153719],> 100 µM
14,"Oc1ccc(C=Nn2c(O)csc2=S)c(O)c1O [3-[[(E)-[2,3-bis(oxidanyl)-4-oxidanylidene-cyclohexa-2,5-dien-1-ylidene]methyl]amino]-2-sulfanylidene-1,3-thiazolidin-4-one]",58.5 µM
15,C#CCOCCOCCOCCNc1nc(N2CCN(C(=O)CCCCCCCCCCNC(=O)[C@H]([C@@H](C)CC)n3cc(CCCCN=C(N)N)nn3)CC2)nc(N2CCN(C(=O)CCCCCCCCCCNC(=O)[C@@H]([C@H](C)O)n3cc(C)nn3)CC2)n1 [GT-RI],1.04 µM
